Assay results as given in ChEMBL document CHEMBL1159144, “Novel pyridazino[4,5-b][1,5]oxazepines and -thiazepines as 5-HT1A receptor ligands” (Bioorg Med Chem Lett, 1997).

Tests used:
[1] = molecular target: T1, 5-hydroxytryptamine receptor 1A (Rattus norvegicus, UniProt P19327); test: Binding affinity towards 5-hydroxytryptamine 1A receptor using receptor binding assay
T1 sequence (P19327 whole entry): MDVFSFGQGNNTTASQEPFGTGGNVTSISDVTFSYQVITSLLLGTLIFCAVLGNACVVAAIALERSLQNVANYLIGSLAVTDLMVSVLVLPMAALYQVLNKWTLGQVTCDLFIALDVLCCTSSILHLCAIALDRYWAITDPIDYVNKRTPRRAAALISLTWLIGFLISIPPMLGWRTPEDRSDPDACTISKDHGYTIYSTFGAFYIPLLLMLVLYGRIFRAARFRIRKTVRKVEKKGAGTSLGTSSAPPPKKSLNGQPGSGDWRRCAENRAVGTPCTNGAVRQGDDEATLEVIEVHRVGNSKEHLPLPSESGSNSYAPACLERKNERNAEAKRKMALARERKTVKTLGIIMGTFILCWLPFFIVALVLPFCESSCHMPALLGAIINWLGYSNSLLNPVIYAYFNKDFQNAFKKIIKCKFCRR

[2] = molecular target: T2, Adrenergic receptor alpha-1 (Rattus norvegicus, UniProt P15823+P23944+P43140); test: Binding affinity towards Alpha-1 adrenergic receptor; format: protein assay
T2 sequence (P15823 whole entry): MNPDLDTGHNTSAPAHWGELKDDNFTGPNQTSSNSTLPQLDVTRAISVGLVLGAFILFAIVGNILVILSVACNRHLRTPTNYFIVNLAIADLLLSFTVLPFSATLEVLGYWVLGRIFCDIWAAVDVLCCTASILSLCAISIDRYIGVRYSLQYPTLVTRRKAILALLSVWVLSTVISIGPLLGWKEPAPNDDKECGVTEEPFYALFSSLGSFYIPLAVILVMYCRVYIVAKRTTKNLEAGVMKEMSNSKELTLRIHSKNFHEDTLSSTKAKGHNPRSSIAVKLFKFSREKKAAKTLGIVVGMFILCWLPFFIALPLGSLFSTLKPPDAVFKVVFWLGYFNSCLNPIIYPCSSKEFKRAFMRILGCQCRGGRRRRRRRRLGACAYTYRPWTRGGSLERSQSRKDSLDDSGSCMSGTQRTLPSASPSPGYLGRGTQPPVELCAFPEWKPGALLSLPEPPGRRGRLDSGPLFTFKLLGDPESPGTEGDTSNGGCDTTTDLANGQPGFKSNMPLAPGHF
T2 sequence (P23944 whole entry): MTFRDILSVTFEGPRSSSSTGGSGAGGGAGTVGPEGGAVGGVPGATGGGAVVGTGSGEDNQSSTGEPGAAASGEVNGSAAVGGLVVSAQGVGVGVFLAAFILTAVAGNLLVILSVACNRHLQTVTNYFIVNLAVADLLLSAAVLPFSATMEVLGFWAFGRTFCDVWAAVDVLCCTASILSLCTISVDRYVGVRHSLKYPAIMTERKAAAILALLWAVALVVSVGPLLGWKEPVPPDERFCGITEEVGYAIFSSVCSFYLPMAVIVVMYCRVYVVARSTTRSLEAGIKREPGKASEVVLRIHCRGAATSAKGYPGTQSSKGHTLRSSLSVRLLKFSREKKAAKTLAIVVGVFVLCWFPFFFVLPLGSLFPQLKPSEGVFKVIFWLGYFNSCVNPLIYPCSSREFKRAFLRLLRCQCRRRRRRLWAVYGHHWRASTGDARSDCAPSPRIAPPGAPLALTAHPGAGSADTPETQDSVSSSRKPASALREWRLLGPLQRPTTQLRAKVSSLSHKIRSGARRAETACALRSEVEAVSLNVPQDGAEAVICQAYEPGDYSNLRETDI
T2 sequence (P43140 whole entry): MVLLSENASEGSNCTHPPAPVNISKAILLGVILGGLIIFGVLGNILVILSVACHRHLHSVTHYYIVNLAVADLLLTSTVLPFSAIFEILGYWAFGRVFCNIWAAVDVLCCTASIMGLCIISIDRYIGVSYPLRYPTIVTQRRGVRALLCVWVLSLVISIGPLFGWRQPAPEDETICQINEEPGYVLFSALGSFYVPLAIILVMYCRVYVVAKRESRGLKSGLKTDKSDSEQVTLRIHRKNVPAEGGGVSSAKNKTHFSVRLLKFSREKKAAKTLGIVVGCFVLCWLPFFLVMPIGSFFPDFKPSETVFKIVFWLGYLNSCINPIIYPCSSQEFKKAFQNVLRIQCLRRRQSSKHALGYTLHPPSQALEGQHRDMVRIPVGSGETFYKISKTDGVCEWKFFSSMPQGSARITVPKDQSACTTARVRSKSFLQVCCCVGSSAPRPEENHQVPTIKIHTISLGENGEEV

[3] = molecular target: T3, Adrenergic receptor alpha-2 (Rattus norvegicus, UniProt P22086+P19328+P22909); test: Binding affinity towards Alpha-2 adrenergic receptor; format: protein assay
T3 sequence (P22086 whole entry): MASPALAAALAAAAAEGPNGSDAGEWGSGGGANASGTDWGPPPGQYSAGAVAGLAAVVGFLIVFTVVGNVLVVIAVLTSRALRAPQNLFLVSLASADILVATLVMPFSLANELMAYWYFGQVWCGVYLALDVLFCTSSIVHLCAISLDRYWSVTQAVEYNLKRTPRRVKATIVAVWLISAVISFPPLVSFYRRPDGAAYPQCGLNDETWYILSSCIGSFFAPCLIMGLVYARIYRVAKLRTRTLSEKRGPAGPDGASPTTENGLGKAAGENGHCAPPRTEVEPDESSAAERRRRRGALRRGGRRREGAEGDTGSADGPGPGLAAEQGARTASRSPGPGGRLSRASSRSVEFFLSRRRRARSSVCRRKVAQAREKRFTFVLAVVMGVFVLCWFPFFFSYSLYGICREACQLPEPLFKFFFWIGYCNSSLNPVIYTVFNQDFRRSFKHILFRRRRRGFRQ
T3 sequence (P19328 whole entry): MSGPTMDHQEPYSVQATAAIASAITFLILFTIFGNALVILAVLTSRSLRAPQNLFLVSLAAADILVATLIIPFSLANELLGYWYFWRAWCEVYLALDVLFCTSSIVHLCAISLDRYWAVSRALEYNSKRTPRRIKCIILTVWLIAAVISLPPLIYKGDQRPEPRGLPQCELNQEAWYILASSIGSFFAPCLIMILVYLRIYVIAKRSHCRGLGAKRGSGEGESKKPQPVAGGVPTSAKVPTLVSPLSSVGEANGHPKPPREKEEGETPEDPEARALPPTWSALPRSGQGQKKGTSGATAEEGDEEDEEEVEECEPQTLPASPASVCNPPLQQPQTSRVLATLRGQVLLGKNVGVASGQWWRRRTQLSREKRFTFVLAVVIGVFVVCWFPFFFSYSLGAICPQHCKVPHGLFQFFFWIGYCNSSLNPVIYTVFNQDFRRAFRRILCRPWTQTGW
T3 sequence (P22909 whole entry): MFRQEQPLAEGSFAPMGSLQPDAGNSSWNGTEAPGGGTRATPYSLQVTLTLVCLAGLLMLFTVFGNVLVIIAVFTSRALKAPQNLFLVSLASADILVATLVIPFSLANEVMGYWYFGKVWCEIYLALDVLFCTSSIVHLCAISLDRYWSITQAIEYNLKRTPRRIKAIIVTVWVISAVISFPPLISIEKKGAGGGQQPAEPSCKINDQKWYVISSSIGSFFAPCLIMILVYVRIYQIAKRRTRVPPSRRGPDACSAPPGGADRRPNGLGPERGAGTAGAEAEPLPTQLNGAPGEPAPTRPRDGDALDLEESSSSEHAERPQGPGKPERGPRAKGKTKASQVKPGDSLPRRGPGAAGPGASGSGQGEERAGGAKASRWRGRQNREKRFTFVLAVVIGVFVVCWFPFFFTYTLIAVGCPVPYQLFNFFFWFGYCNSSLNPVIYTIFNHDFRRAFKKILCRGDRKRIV

IC50 [1] [nM]	IC50 [2] [nM]	IC50 [3] [nM]	SMILES
134	16100	9500	COc1ccccc1OCCN(C)CCC(=O)N1CCCOc2c1cnn(C)c2=O
11.4	1700	270	COc1ccccc1OCCNCCC(=O)N1CCCSc2c1cnn(C)c2=O
1000			COc1ccccc1OCCN(CCC(=O)N1CCCOc2c1cnn(C)c2=O)Cc1ccccc1
32.7			CCSc1c(N(C)C(=O)CCNCCOc2ccccc2OC)cnn(C)c1=O
9.2	930	860	COc1ccccc1OCCNCCCC(=O)N1CCCSc2c1cnn(C)c2=O
181			Cn1ncc2c(c1=O)SCCCN2C(=O)CCNCCOc1cccc(Cl)c1
150			Cn1ncc2c(c1=O)SCCCN2C(=O)CCNCCOc1ccccc1
17.8	690	3900	COc1ccccc1OCCNCCCC(=O)N1CCCOc2c1cnn(C)c2=O
230			Cn1ncc2c(c1=O)OCCCN2C(=O)CNCCOc1ccccc1
312			Cn1ncc2c(c1=O)OCCCN2C(=O)CCNCCOc1cccc(Cl)c1
37	> 10000	3100	COc1ccccc1OCCNCC(=O)N1CCCSc2c1cnn(C)c2=O
118			COc1cccc(OCC(O)CN2CCN(CCC(=O)N3CCCSc4c3cnn(C)c4=O)CC2)c1 (stereo unspecified)
19.5	1700	1800	COc1ccccc1OCCNCCC(=O)N1CCCOc2c1cnn(C)c2=O
44.9	19000	2330	Cn1ncc2c(c1=O)SCCCN2C(=O)CNCC1COc2ccccc2O1 (stereo unspecified)
299	> 10000	4600	Cn1ncc2c(c1=O)OCCCN2C(=O)CNCC1COc2ccccc2O1 (stereo unspecified)
163	12500	21000	COc1ccccc1OCCNCC(=O)N1CCCOc2c1cnn(C)c2=O
524	8900	540	Cn1ncc2c(c1=O)OCCCN2C(=O)CCNCCOc1ccccc1

SMILES	IC50 [1] [nM]	IC50 [2] [nM]	IC50 [3] [nM]
COc1ccccc1OCC(O)CN1CCN(CCC(=O)N2CCCOc3c2cnn(C)c3=O)CC1 (stereo unspecified)	> 1000	> 10000	47000
COc1ccccc1OCCNC(C)C(=O)N1CCCOc2c1cnn(C)c2=O (stereo unspecified)	> 1000		
COc1ccccc1OCC(O)CN1CCN(CC(=O)N2CCCOc3c2cnn(C)c3=O)CC1 (stereo unspecified)	> 1000		
COc1ccccc1OCCN(C)CCCN1CCCSc2c1cnn(C)c2=O	> 1000		
COc1ccccc1OCCNC(C)C(=O)N1CCCSc2c1cnn(C)c2=O (stereo unspecified)	> 1000		
COc1ccccc1OCCN(CCC(=O)N1CCCSc2c1cnn(C)c2=O)Cc1ccccc1	> 1000		
COc1ccccc1N1CCN(CC(=O)N2CCCOc3c2cnn(C)c3=O)CC1	> 1000		
